Results reported in ChEMBL document CHEMBL3745641, “Discovery and Structure-Guided Optimization of Diarylmethanesulfonamide Disrupters of Glucokinase-Glucokinase Regulatory Protein (GK-GKRP) Binding: Strategic Use of a N → S (nN → σ*S-X) Interaction for Conformational Constraint” (J Med Chem, 2015).

Key:
[1] = Intrinsic clearance in rat liver microsomes after 30 mins; assay type: ADME; details: read-out: CLH
[2] = Apparent permeability from apical to basolateral side in pig LLC-PK1 cells; assay type: ADME, cell-based, Sus scrofa
[3] = Oral bioavailability in Sprague-Dawley rat at 10 mg/kg; assay type: ADME, organism-based; details: in vivo
[4] = Tmax in Sprague-Dawley rat at 10 mg/kg, po; assay type: ADME, organism-based; details: in vivo
[5] = Plasma concentration in Sprague-Dawley rat at 10 mg/kg, po qd after 6 hrs; assay type: ADME, organism-based
[6] = Half life in Sprague-Dawley rat at 2 mg/kg, iv; assay type: ADME, organism-based; details: in vivo
[7] = Cmax in Sprague-Dawley rat at 10 mg/kg, po; assay type: ADME, organism-based; parameters: dose 10 mg/kg, route oral; details: in vivo
[8] = Drug uptake in db/db mouse blood at 10 mg/kg, po qd after 6 hrs; assay type: ADME, organism-based; details: whole blood, read-out: Drug uptake
[9] = Plasma protein binding in rat by rapid equilibrium dialysis method; assay type: ADME, cell-free; details: read-out: PPB
[10] = test system: Blood; assay: Drug uptake in po dosed db/db mouse blood administered qd measured after 6 hrs; assay type: ADME, organism-based; details: in vivo
[11] = Volume of distribution at steady state in Sprague-Dawley rat at 2 mg/kg, iv; assay type: ADME, organism-based; details: in vivo, read-out: Vdss
[12] = Drug uptake in db/db mouse blood at 100 mg/kg, po qd after 6 hrs; assay type: ADME, organism-based; details: whole blood, read-out: Drug uptake
[13] = test system: Plasma; assay: Drug uptake in po dosed Sprague-Dawley rat plasma administered qd measured after 6 hrs; assay type: ADME, organism-based; details: in vivo
[14] = Plasma concentration in Sprague-Dawley rat at 10 mg/kg, po qd at 24 hrs; assay type: ADME, organism-based
[15] = Plasma concentration in Sprague-Dawley rat at 100 mg/kg, po qd after 6 hrs; assay type: ADME, organism-based
[16] = Drug uptake in db/db mouse blood at 30 mg/kg, po qd after 6 hrs; assay type: ADME, organism-based; details: whole blood, read-out: Drug uptake
[17] = Plasma concentration in Sprague-Dawley rat at 100 mg/kg, po qd at 24 hrs; assay type: ADME, organism-based
[18] = Clearance in Sprague-Dawley rat at 2 mg/kg, iv; assay type: ADME, organism-based; details: in vivo
[19] = target: T1, Glucokinase regulatory protein (Mus musculus, UniProt Q91X44); assay: Inhibition of glucokinase-GKRP binding interaction in mouse hepatocytes assessed as induction of glucokinase translocation; assay type: cell-based, Hepatocyte
T1 sequence (Q91X44 whole entry): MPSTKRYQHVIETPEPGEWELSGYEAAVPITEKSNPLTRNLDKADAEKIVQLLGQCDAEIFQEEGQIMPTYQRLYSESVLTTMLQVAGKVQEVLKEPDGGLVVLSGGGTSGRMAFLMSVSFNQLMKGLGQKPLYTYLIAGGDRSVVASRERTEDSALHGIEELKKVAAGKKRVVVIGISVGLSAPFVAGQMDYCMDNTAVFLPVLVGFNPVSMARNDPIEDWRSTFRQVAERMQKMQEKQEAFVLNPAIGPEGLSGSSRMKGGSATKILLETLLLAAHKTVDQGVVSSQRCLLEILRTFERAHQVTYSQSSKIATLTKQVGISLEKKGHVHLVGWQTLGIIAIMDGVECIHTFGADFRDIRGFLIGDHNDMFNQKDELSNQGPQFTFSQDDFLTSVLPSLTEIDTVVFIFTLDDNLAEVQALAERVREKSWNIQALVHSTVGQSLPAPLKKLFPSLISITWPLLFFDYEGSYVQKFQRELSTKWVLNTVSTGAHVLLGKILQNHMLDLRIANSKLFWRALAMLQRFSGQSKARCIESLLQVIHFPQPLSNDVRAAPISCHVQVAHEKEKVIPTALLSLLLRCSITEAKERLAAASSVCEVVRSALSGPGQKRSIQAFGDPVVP

[20] = test system: Mus musculus; assay: Antidiabetic activity in db/db mouse assessed as reduction in blood glucose level at 100 mg/kg, po qd after 3 hrs relative to control; assay type: functional; parameters: scale not given: the % may be the effect or the level left
[21] = test system: Mus musculus; assay: Antidiabetic activity in db/db mouse assessed as reduction in blood glucose level at 100 mg/kg, po qd after 6 hrs relative to control; assay type: functional; parameters: scale not given: the % may be the effect or the level left
[22] = Drug uptake in db/db mouse blood at 100 mg/kg, po qd after 3 hrs; assay type: ADME, organism-based; details: whole blood, read-out: Drug uptake
[23] = target: T2, Hexokinase-4 (Homo sapiens, UniProt P35557); assay: Binding affinity to human glucokinase by surface plasmon resonance analysis
T2 sequence (P35557 whole entry): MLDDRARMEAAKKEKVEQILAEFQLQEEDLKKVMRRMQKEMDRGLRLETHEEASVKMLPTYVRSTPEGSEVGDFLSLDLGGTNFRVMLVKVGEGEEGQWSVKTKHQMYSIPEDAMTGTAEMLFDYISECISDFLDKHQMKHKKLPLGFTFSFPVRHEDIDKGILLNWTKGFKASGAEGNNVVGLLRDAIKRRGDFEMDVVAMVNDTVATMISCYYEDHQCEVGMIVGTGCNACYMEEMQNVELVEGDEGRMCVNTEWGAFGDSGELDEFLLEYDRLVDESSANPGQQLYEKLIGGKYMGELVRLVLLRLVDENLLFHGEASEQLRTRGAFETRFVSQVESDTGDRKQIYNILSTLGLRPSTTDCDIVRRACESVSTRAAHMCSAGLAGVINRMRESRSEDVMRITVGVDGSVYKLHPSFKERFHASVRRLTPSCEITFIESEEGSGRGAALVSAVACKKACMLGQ

[24] = target: T2, Hexokinase-4; assay: Effect on human glucokinase activity after 60 mins by luciferase-based luminescence assay in absence of human GKRP

SMILES	microsomal CLint [1] [µL/min/mg]	Papp A→B [2] [×10⁻⁶ cm/s]	EC50 [19] [µM]	further results
CC(C)(O)c1ccnc(-c2cccc3cc([C@H](NS(=O)(=O)C4CC4)c4nc(N)ccc4Cl)sc23)c1	130	11		
CC(C)(O)c1ccnc(-c2cccc3cc([C@H](NS(=O)(=O)C4CC4)c4nc(N)ncc4Cl)sc23)c1	28	19		bioavailability [3]: 25%; Tmax [4]: 4.7 h; concentration at 6 h [5]: 2900 nM; half-life [6]: 3 h; Cmax [7]: 1900 nM; concentration at 6 h [8]: 1200 nM; fraction unbound [9]: 0.01; Drug uptake [10]: Dose-dependent effect; Vd [11]: 1.3 L/kg; concentration at 6 h [12]: 19000 nM; Drug uptake [13]: Dose-dependent effect; concentration at 24 h [14]: 200 nM; concentration at 6 h [15]: 23000 nM; concentration at 6 h [16]: 4100 nM; concentration at 24 h [17]: 210 nM; clearance [18]: 4.67 mL/min/kg
C[C@@](O)(c1ccnc(-c2cccc3cc([C@H](NS(=O)(=O)C4CC4)c4ccccc4Cl)sc23)c1)C(F)(F)F	< 14	< 1.8		
CC(C)(O)c1ccnc(-c2cccc3cc([C@H](NS(=O)(=O)C4CC4)c4c(Cl)cnc(N)c4F)sc23)c1	26	16		bioavailability [3]: 46%; Activity [20]: 45%; Tmax [4]: 3.3 h; Activity [21]: 33%; half-life [6]: 3.1 h; Cmax [7]: 2800 nM; fraction unbound [9]: 0.01; Vd [11]: 1.6 L/kg; concentration at 6 h [12]: 21000 nM; Drug uptake [13]: Dose-dependent effect; concentration at 24 h [14]: 220 nM; concentration at 24 h [17]: 6300 nM; clearance [18]: 6 mL/min/kg; concentration at 3 h [22]: 25000 nM
O=S(=O)(N[C@@H](c1cc2ccccc2s1)c1ccccc1Cl)C1CC1	> 399		> 12.5	
CC(C)(O)c1ccnc(-c2cccc3cc([C@H](NS(=O)(=O)C4CC4)c4cc(N)ncc4Cl)sc23)c1	67	19		
CC(C)(O)c1ccnc(-c2cccc3cc([C@H](NS(=O)(=O)C4CC4)c4nc(N)c(F)cc4Cl)sc23)c1	28	7.8		
C[C@](O)(c1ccnc(-c2cccc3cc([C@H](NS(=O)(=O)C4CC4)c4ccccc4Cl)sc23)c1)C(F)(F)F	< 14	2.4		
CC(C)(O)c1ccnc(-c2cccc3cc([C@H](NS(=O)(=O)C4CC4)c4c(F)cccc4Cl)sc23)c1	18	9.5		
CC(C)(O)c1ccnc(-c2cccc3cc([C@H](NS(=O)(=O)C4CC4)c4ccccc4Cl)sc23)c1	34	7.5		
O=S(=O)(NC(c1ccccc1)c1cc2ccccc2o1)c1ccc2c(c1)OCCCO2 (stereo not given)				EC50 [24]: > 100 µM; Kd [23]: > 20 µM

Second part, led by results:

microsomal CLint [1] [µL/min/mg]	Papp A→B [2] [×10⁻⁶ cm/s]	EC50 [19] [µM]	SMILES	further results
> 399		3.3	O=S(=O)(N[C@@H](c1nc2cccnc2s1)c1ccccc1Cl)c1ccc2c(c1)OCCCO2	
> 399		> 12.5	O=S(=O)(N[C@@H](c1cc2ccccc2s1)c1ccccc1Cl)c1ccc2c(c1)OCC(F)(F)CO2	
> 399		> 12.5	O=S(=O)(N[C@@H](c1cc2ccccc2s1)c1ccccc1Cl)c1ccccc1	
> 399		4.1	O=S(=O)(N[C@@H](c1cc2ccccc2s1)c1ccccc1Cl)c1ccc2c(c1)OCC(F)CO2 (mixture of isomers)	
< 14			C[C@@](O)(c1cccc(-c2cccc3cc([C@H](NS(=O)(=O)C4CC4)c4ccccc4Cl)sc23)c1)C(F)(F)F	
304		4.3	O=S(=O)(N[C@@H](c1cc2ccccc2s1)c1ccccc1Cl)c1ccc2c(c1)OCC(O)CO2 (mixture of isomers)	
> 399		> 12.5	O=S(=O)(N[C@@H](c1cc2ccccc2s1)c1ccccc1Cl)c1ccc2c(c1)OCO2	
> 399			O=S(=O)(N[C@@H](c1cc2ccccc2s1)c1ccccc1Cl)c1ccc2c(c1)OCCCO2	Kd [23]: > 10 µM
> 399		> 12.5	COc1ccc(S(=O)(=O)N[C@@H](c2cc3ccccc3s2)c2ccccc2Cl)cc1	
> 399		> 12.5	O=S(=O)(N[C@@H](c1cc2ccccc2s1)c1ccccc1Cl)c1ccc2c(c1)OCCO2	
< 14			C[C@](O)(c1cccc(-c2cccc3cc([C@H](NS(=O)(=O)C4CC4)c4ccccc4Cl)sc23)c1)C(F)(F)F	
> 399			O=S(=O)(N[C@H](c1ccccc1)c1cc2ccccc2o1)c1ccc2c(c1)OCCCO2	
> 399		6.3	O=S(=O)(N[C@@H](c1cc2ccccc2o1)c1ccccc1Cl)c1ccc2c(c1)OCCCO2	
